Assay results as given in article PMC10288505, “Photoswitchable Calixarene Activators for Controlled Peptide Transport across Lipid Membranes” (Journal of the American Chemical Society, 2023).
One block for each compound: values may come before it.

Legend:
R3 = assay: Indicator displacement assay with host:LCG reporter pair, guest R3; assay type: binding; details: association constant, competitive dye displacement with LCG, 5 mM phosphate buffer pH 7.3, mean ± SD of triplicate
From the text: (§1) The binding affinity of the anionic calixarene activators toward cationic peptides was investigated using a small library of highly hydrophilic oligoarginines, from 3 to 8 residues. These peptides are not able to spontaneously transverse zwitterionic artificial membranes in vesicle assays, which allows the accurate evaluation of the calixarenes 1 and 2 as counterion activators without interferences from the transport of the peptide alone.[43]−[45] First, the formation of host–guest complexes between 1/2 and the selected peptides was verified by indicator displacement assays using lucigenin (LCG) as the fluorescent indicator.[46] As previously reported for other sulfonatocalixarene derivatives,[46] the formation of host–guest binding pairs between calixarenes 1/2 in the E- and Z-forms and LCG results in significant static fluorescence quenching (see Figure 2A and Figures S26 and S27). Quantitative analysis of the fluorescence titration data using a 1:1 host:guest binding model allows the determination of the respective binding constants (K) reported in Table 1. As can be observed, both 1/2 display high affinity for the LCG dye, on the 10^7 M^–1 range, which seems to be independent of the nature and conformation of the azobenzene arm. […] The host:LCG binding pairs were then employed in the above-mentioned indicator displacement assays to investigate the binding affinity of oligoarginines toward 1 and 2 (see Figure 2B and Figures S29–S33).
(§2) The binding affinities of the counterion activators and peptide complexes were analyzed by indicator displacement assays. The fluorescent dye chosen for these experiments was lucigenin (LCG) due to its complex with the receptor SC4 being well characterized and due to the high variation of emission between its bound and free form. Firstly, the affinity for LCG was calculated for each of the activators, by titrations followed by fluorescence spectroscopy leading to almost full quenching of the emission. For the competitive assays, a concentration of LCG and activator was chosen in order to have approximately 90% of complexed dye and that mixture was then titrated with each of the peptides, leading to the regaining of emission when LCG was release from the complex.
(§3) Figure S26 - Fluorescence titration of the lucigenin dye with increasing concentrations of A) E-1 and B) Z–1 in water (5 mM phosphate buffer pH 7.3). LCG concentration was fixed 0.2 µM in all experiments, except for the first E-1 titrations were [LCG]
(§4) (1 picture or pasted object on this page, not shown here)
(§5) Figure S29 - Indicator displacement titration of the several oligoarginines A) R3 B) R4 C) R6 and D) R8, using SC4:LCG as the reporter pair (5 mM phosphate buffer pH 7.3). LCG and SC4 concentrations were fixed at A) 0.22 and 0.50 µM, for all three replicates, B) 0.22 and 4.7 µM for the first titration and 0.22 and 4.3 µM for the remaining two replicates, C) 0.22 and 0.45 µM and 1.1 and 0.85 µM and D) 0.28 and 0.43 µM and 1.1 and 0.85 µM, respectively, from left to right.
(§6) Figure S30 - Indicator displacement titration of the several oligoarginines A) R3 B) R4 C) R6 and D) R8, using E-1:LCG as the reporter pair (5 mM phosphate buffer pH 7.3) LCG and E-1 concentrations were fixed at A) 0.11 and 0.25 µM, for all three replicates, B) 0.22 and 0.5 µM, for the first two titrations and 0.22 and 0.23 µM for the remaining replicate, C) 4.0 and 3.8 µM and 0.22 and 0.5 µM, D) 4 and 3 µM and 0.22 and 0.5 µM, respectively, from left to right. […]

R4 = assay: Indicator displacement assay with host:LCG reporter pair, guest R4; assay type: binding; details: association constant, competitive dye displacement with LCG, 5 mM phosphate buffer pH 7.3, mean ± SD of triplicate
From the text: as §1, §2, §3, §4, §5, §6

hexaarginine (R6) = assay: Indicator displacement assay with host:LCG reporter pair, guest R6; assay type: binding; details: association constant, competitive dye displacement with LCG, 5 mM phosphate buffer pH 7.3; only the lower limit can be estimated
From the text: as §1
Figure 2 (A) Fluorescence titration of the lucigenin dye (LCG, 1.5 μM) with increasing concentrations of E-2 in water (5 mM phosphate buffer, pH 7.3). […]
(§7) The binding affinities of the counterion activators and peptide complexes were analyzed by indicator displacement assays. […] Firstly, the affinity for LCG was calculated for each of the activators, by titrations followed by fluorescence spectroscopy leading to almost full quenching of the emission. […]
(§8) Figure S26 - Fluorescence titration of the lucigenin dye with increasing concentrations of A) E-1 and B) Z–1 in water (5 mM phosphate buffer pH 7.3). […]

R8 = assay: Indicator displacement assay with host:LCG reporter pair, guest R8; assay type: binding; details: association constant, competitive dye displacement with LCG, 5 mM phosphate buffer pH 7.3; only the lower limit can be estimated
From the text: as §1, §7, §8

[1] = Carboxyfluorescein (CF) dye efflux assay, counterion-activated peptide transport; assay type: biochemical; details: for CF transport out of the liposomes on addition of peptide alone: peptide 4 µM, no activator, LUV 15 µM lipid with 50 mM CF encapsulated
Method: Dynamic light scattering (DLS) control experiments also confirmed liposome integrity under the experimental conditions employed in the different membrane transport assays, which ruled out potential membrane disruption interferences (Figure S34). Established dye efflux assays were performed using the carboxyfluorescein (CF) dye encapsulated at self-quenching concentrations in egg phosphatidylcholine large unilamellar vesicles (EYPC-LUV⊃CF).[26],[27],[29],[45] In these experiments, the fractional release of trapped CF (or fractional transport activity, Y), triggered by the addition of counterion activators and peptides, is monitored by time-resolved fluorescence spectroscopy and calibrated by the addition of Triton X-100 (Figure S35).
The studies were performed with both 1 and 2 in the E and Z configurations in the presence of fixed concentrations of liposomes and cationic peptides. […] Likewise, the addition of peptides alone or nonbinding anionic peptides in the presence of calixarene activators also results in unmodified fluorescence signal, confirming that the formation of the calixarene–peptide complex is critical to activate the transport process. […] This approach retrieves the Ymax (i.e., maximal CF release relative to liposome lysis after the addition of Triton X-100) and EC50 (i.e., the effective counterion activator concentration required to reach Ymax/2) as the relevant parameters to measure the efficiency of the counterion activators.
10 mg of L-α-phosphatidylcholine (95%) (Egg, Chicken) were dissolved in 1 ml of chloroform. The solution was evaporated under a nitrogen stream, under rotation, to form a thin lipid film in the bottom of the flask. This film was left to dry under vacuum for a minimum of 1h. After drying the maximum of the solvent from the solution, 1 ml of the solution to incorporate (CF 50 mM in 5 mM phosphate buffer for EYPC-LUV⊃CF and only phosphate buffer 5 mM pH 7.4, for the LUVs with no encapsulation) was added to the thin film and the lipids were left to resuspend under agitation, in a 40 °C bath, for 30 min. The resuspended lipid mixture was then submitted to 10 freeze-thaw cycles and extruded 23 times through a 100 nm membrane, to obtain uniform, monodisperse liposomes with high encapsulation of the added solution. The liposomes were then separated from the molecules that were not encapsulated by size-exclusion chromatography, with Sephadex G25 (V = 37 ml), obtaining two fractions, one with high turbidity and a clear one, corresponding to the encapsulated and free sensor, respectively. The samples were then analyzed by Dynamic Light Scattering (DLS) to determine the average size of the liposomes in solution and their size distribution.
All assays were done up to 48h after the preparation of the vesicles to ensure their integrity and majority of CF still encapsulated.
EC50 and Ymax calculation. For the measurement of 1 and 2’s effectiveness as a counterion activators of polyarginine transport, dye efflux assays were executed at several counterion activator concentrations, while maintaining the concentration of peptide and LUV fixed as indicated in the respective figures.
For the dye efflux assays, CF emission was followed throughout the assay, with consecutive additions of the elements of the solution – the initial solution presented only the vesicles at a fixed concentration. A counterion activator aliquot is then added according to the concentration to be tested and the emission is measured to confirm that CF remains encapsulated; some counterion activators can act as detergents at sufficient concentrations. Finally, the peptide in question is added and fluorescence spectra are measured […]
until the emission stabilizes and a maximum of release is reached. If the counterion activator has the capacity to activate the transport, CF should be co-transported to the exterior of the liposome with the influx of the counterion-peptide complex. Finally, Triton X-100 is added to the solution to dissolve the […]

[2] = Photochemical characterisation (UV–vis absorption, 1H NMR) and thermal Z→E isomerization; assay type: physicochemical
From the text: The photochromic properties of 1 and 2 were investigated in diluted aqueous solution by UV–vis absorption spectroscopy and in CD3OD by ^1H NMR.
On the other hand, irradiation of the Z-forms at λirr = 500 nm originates a photostationary state (PSS) composed of 70 and 80% of E-1 (Φ1Z → E = 0.6) and E-2 (Φ2Z → E = 0.5), respectively (Figure 1 and Figure S23). As generally observed for other azobenzene photoswitches,[42] the E isomers can be quantitatively recovered in the dark through the thermal Z → E isomerization, with 1 and 2 presenting activation energies of 215 and 93 kJ/mol, respectively (Figures S24 and S25).

- Apparent affinity constant K for R3 (R3): (5.5 ± 0.3) × 10^6 M^–1
- Apparent affinity constant K for R4 (R4): (2.7 ± 0.4) × 10^8 M^–1
- Apparent affinity constant K for R6 (hexaarginine (R6)): >1 × 10^9 ^a M^–1
- Apparent affinity constant K for R8 (R8): >1 × 10^9 ^a M^–1
SMILES: O=S(=O)(O)c1cc2c(O)c(c1)Cc1cc(S(=O)(=O)O)cc(c1O)Cc1cc(S(=O)(=O)O)cc(c1O)Cc1cc(S(=O)(=O)O)cc(c1O)C2 [SC4, sulfonatocalix[4]arene, reference compound]

SMILES: CCCCc1ccc(N=Nc2ccc(OCCCOc3c4cc(S(=O)(=O)[O-])cc3Cc3cc(S(=O)(=O)[O-])cc(c3O)Cc3cc(S(=O)(=O)[O-])cc(c3O)Cc3cc(S(=O)(=O)[O-])cc(c3O)C4)cc2)cc1.[Li+].[Li+].[Li+].[Li+] [compound 2]
- CF fluorescence signal (vesicle leakage) on addition of counterion activator alone ([1]; in the absence of peptides, EYPC-LUV⊃CF): does not affect the intensity of the fluorescence signal
- Activation energy of thermal Z → E isomerization ([2]; in the dark): 22.2 kcal/mol
- Conversion of the E isomer into the Z-form ([2]; irradiation at 366 nm): quantitative conversion
- Photoisomerization quantum yield Φ E → Z ([2]; irradiation at 366 nm, diluted aqueous solution): 0.4
- Photoisomerization quantum yield Φ Z → E ([2]; irradiation at 500 nm): 0.5

SMILES: N=C(N)NCCC[C@H](NC(=O)[C@H](CCCNC(=N)N)NC(=O)[C@H](CCCNC(=N)N)NC(=O)[C@H](CCCNC(=N)N)NC(=O)[C@H](CCCNC(=N)N)NC(=O)[C@@H](N)CCCNC(=N)N)C(N)=O [R6, hexaarginine, reference compound]
- CF transport out of the liposomes on addition of peptide alone [1]: did not activate the transport of CF

SMILES: N=C(N)NCCC[C@H](NC(=O)[C@H](CCCNC(=N)N)NC(=O)[C@H](CCCNC(=N)N)NC(=O)[C@H](CCCNC(=N)N)NC(=O)[C@H](CCCNC(=N)N)NC(=O)[C@H](CCCNC(=N)N)NC(=O)[C@H](CCCNC(=N)N)NC(=O)[C@@H](N)CCCNC(=N)N)C(N)=O [R8, reference compound]
- CF transport out of the liposomes on addition of peptide alone [1]: did not activate the transport of CF
